Data from PubChem BioAssay (NCI).
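Following 48 hours of exposure in 96-well plates, responses at five concentrations were used to interpolate endpoints linearly. Definition used: TGI = concentration required for complete inhibition of growth.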

Experiments:
Assay in all cases: NCI anticancer screen, dose series, 48 h
NCI-H460 lung = system: NCI-H460 lung
NCI-H23 lung = system: NCI-H23 lung
SN12C renal = system: SN12C renal
LXFL 529 NSCLC = system: LXFL 529 NSCLC
KM12 colon = system: KM12 colon
M14 melanoma = system: M14 melanoma
HCC-2998 colon = system: HCC-2998 colon
SR leukemia = system: SR leukemia
IGROV1 ovarian = system: IGROV1 ovarian
A549 NSCLC = system: A549 NSCLC
HOP-18 NSCLC = system: HOP-18 NSCLC
SF-295 CNS = system: SF-295 CNS
DMS 114 small cell lung = system: DMS 114 small cell lung
HT29 colon = system: HT29 colon
SF-268 CNS = system: SF-268 CNS
M19-MEL melanoma = system: M19-MEL melanoma
MOLT-4 leukemia = system: MOLT-4 leukemia
A498 renal = system: A498 renal
RXF 393 renal = system: RXF 393 renal
SNB-19 CNS = system: SNB-19 CNS
MALME-3M melanoma = system: MALME-3M melanoma
SK-MEL-2 melanoma = system: SK-MEL-2 melanoma
HCT-15 colon = system: HCT-15 colon
OVCAR-8 ovarian = system: OVCAR-8 ovarian
UACC-257 melanoma = system: UACC-257 melanoma
SF-539 CNS = system: SF-539 CNS
SNB-78 CNS = system: SNB-78 CNS
HOP-62 NSCLC = system: HOP-62 NSCLC
OVCAR-5 ovarian = system: OVCAR-5 ovarian
K-562 leukemia = system: K-562 leukemia
RXF-631 renal = system: RXF-631 renal
COLO 205 colon = system: COLO 205 colon
SK-MEL-28 melanoma = system: SK-MEL-28 melanoma
786-0 renal = system: 786-0 renal
HL-60(TB) leukemia = system: HL-60(TB) leukemia
TK-10 renal = system: TK-10 renal
SK-MEL-5 melanoma = system: SK-MEL-5 melanoma
HCT-116 colon = system: HCT-116 colon
KM20L2 colon = system: KM20L2 colon
EKVX NSCLC = system: EKVX NSCLC
UO-31 renal = system: UO-31 renal
ACHN renal = system: ACHN renal
UACC-62 melanoma = system: UACC-62 melanoma
DLD-1 colon = system: DLD-1 colon
HOP-92 NSCLC = system: HOP-92 NSCLC
U251 CNS = system: U251 CNS
SW-620 colon = system: SW-620 colon
NCI-H522 lung = system: NCI-H522 lung
CCRF-CEM leukemia = system: CCRF-CEM leukemia
RPMI-8226 leukemia = system: RPMI-8226 leukemia
CAKI-1 renal = system: CAKI-1 renal
OVCAR-4 ovarian = system: OVCAR-4 ovarian
OVCAR-3 ovarian = system: OVCAR-3 ovarian
SNB-75 CNS = system: SNB-75 CNS
NCI-H226 lung = system: NCI-H226 lung
LOX IMVI melanoma = system: LOX IMVI melanoma

`COc1ccc(NC(=O)C2C(=O)N(c3ccc(OC)cc3)C(=O)/C2=N\N)cc1` (stereo not drawn) gave a TGI (NCI-H460 lung) greater than 100 µM, a TGI (NCI-H23 lung) greater than 100 µM and a TGI (SN12C renal) greater than 100 µM. The TGI (LXFL 529 NSCLC) was greater than 100 µM, the TGI (KM12 colon) was greater than 100 µM and the TGI (M14 melanoma) was greater than 100 µM. For the same compound, the TGI (HCC-2998 colon) was greater than 100 µM, the TGI (SR leukemia) was greater than 100 µM and the TGI (IGROV1 ovarian) was greater than 100 µM. The TGI (A549 NSCLC) was greater than 100 µM, the TGI (HOP-18 NSCLC) was greater than 100 µM and the TGI (SF-295 CNS) was greater than 100 µM. It also gave a TGI (DMS 114 small cell lung) greater than 100 µM, a TGI (HT29 colon) greater than 100 µM and a TGI (SF-268 CNS) greater than 100 µM. The TGI (M19-MEL melanoma) was greater than 100 µM, the TGI (MOLT-4 leukemia) was greater than 100 µM and the TGI (A498 renal) was greater than 100 µM. For the same compound, the TGI (RXF 393 renal) was greater than 100 µM, the TGI (SNB-19 CNS) was greater than 100 µM and the TGI (MALME-3M melanoma) was greater than 100 µM. For the same compound, the TGI (SK-MEL-2 melanoma) was greater than 100 µM, the TGI (HCT-15 colon) was greater than 100 µM and the TGI (OVCAR-8 ovarian) was greater than 100 µM. The TGI (UACC-257 melanoma) was greater than 100 µM, the TGI (SF-539 CNS) was greater than 100 µM and the TGI (SNB-78 CNS) was greater than 100 µM. It also gave a TGI (HOP-62 NSCLC) greater than 100 µM, a TGI (OVCAR-5 ovarian) greater than 100 µM and a TGI (K-562 leukemia) greater than 100 µM. For the same compound, the TGI (RXF-631 renal) was greater than 100 µM, the TGI (COLO 205 colon) was greater than 100 µM and the TGI (SK-MEL-28 melanoma) was greater than 100 µM. For the same compound, the TGI (786-0 renal) was greater than 100 µM, the TGI (HL-60(TB) leukemia) was greater than 100 µM and the TGI (TK-10 renal) was greater than 100 µM. It also gave a TGI (SK-MEL-5 melanoma) greater than 100 µM, a TGI (HCT-116 colon) greater than 100 µM and a TGI (KM20L2 colon) greater than 100 µM. For the same compound, the TGI (EKVX NSCLC) was greater than 100 µM, the TGI (UO-31 renal) was greater than 100 µM and the TGI (ACHN renal) was greater than 100 µM. The TGI (UACC-62 melanoma) was greater than 100 µM, the TGI (DLD-1 colon) was greater than 100 µM and the TGI (HOP-92 NSCLC) was greater than 100 µM. The TGI (U251 CNS) was greater than 100 µM, the TGI (SW-620 colon) was greater than 100 µM and the TGI (NCI-H522 lung) was greater than 100 µM. For the same compound, the TGI (CCRF-CEM leukemia) was greater than 100 µM.

For `CCOc1cc2c[n+](C)c3c4cc(OC)c(OC)cc4ccc3c2cc1OC`, the TGI (NCI-H460 lung) was greater than 100 µM, the TGI (NCI-H23 lung) was greater than 100 µM and the TGI (SN12C renal) was greater than 100 µM. The TGI (LXFL 529 NSCLC) was greater than 100 µM, the TGI (KM12 colon) was greater than 100 µM and the TGI (M14 melanoma) was greater than 100 µM. It also gave a TGI (HCC-2998 colon) greater than 100 µM, a TGI (SR leukemia) greater than 100 µM and a TGI (IGROV1 ovarian) greater than 100 µM. It also gave a TGI (A549 NSCLC) greater than 100 µM, a TGI (HOP-18 NSCLC) greater than 100 µM and a TGI (RPMI-8226 leukemia) greater than 100 µM. For the same compound, the TGI (SF-295 CNS) was greater than 100 µM, the TGI (DMS 114 small cell lung) was greater than 100 µM and the TGI (HT29 colon) was greater than 100 µM. The TGI (CAKI-1 renal) was greater than 100 µM, the TGI (SF-268 CNS) was greater than 100 µM and the TGI (OVCAR-4 ovarian) was greater than 100 µM. It also gave a TGI (M19-MEL melanoma) greater than 100 µM, a TGI (MOLT-4 leukemia) greater than 100 µM and a TGI (OVCAR-3 ovarian) greater than 100 µM. For the same compound, the TGI (RXF 393 renal) was greater than 100 µM, the TGI (SNB-19 CNS) was greater than 100 µM and the TGI (MALME-3M melanoma) was greater than 100 µM. For the same compound, the TGI (SK-MEL-2 melanoma) was greater than 100 µM, the TGI (HCT-15 colon) was greater than 100 µM and the TGI (SNB-75 CNS) was greater than 100 µM. It also gave a TGI (NCI-H226 lung) greater than 100 µM, a TGI (OVCAR-8 ovarian) of 32.2 µM and a TGI (UACC-257 melanoma) greater than 100 µM. The TGI (SF-539 CNS) was greater than 100 µM, the TGI (SNB-78 CNS) was greater than 100 µM and the TGI (HOP-62 NSCLC) was greater than 100 µM. The TGI (OVCAR-5 ovarian) was greater than 100 µM, the TGI (K-562 leukemia) was greater than 100 µM and the TGI (RXF-631 renal) was 40.1 µM. The TGI (COLO 205 colon) was greater than 100 µM, the TGI (SK-MEL-28 melanoma) was greater than 100 µM and the TGI (786-0 renal) was 35.1 µM. It also gave a TGI (HL-60(TB) leukemia) greater than 100 µM, a TGI (TK-10 renal) greater than 100 µM and a TGI (SK-MEL-5 melanoma) greater than 100 µM. It also gave a TGI (HCT-116 colon) greater than 100 µM, a TGI (KM20L2 colon) greater than 100 µM and a TGI (EKVX NSCLC) greater than 100 µM. The TGI (UO-31 renal) was greater than 100 µM, the TGI (LOX IMVI melanoma) was greater than 100 µM and the TGI (ACHN renal) was greater than 100 µM. It also gave a TGI (DLD-1 colon) greater than 100 µM, a TGI (HOP-92 NSCLC) greater than 100 µM and a TGI (U251 CNS) greater than 100 µM. For the same compound, the TGI (SW-620 colon) was greater than 100 µM, the TGI (NCI-H522 lung) was greater than 100 µM and the TGI (CCRF-CEM leukemia) was greater than 100 µM.
